# Test results published in patent publication US20150025002A1, “PEPTIDES AND PEPTIDE DERIVATIVES BASED ON XENIN” (UNIVERSITY OF ULSTER, priority 2012, published 2015).
# Square brackets hold non-standard residues; d marks the D form. Ends that are not written are not given here.
# Experiments:
# BRIN-BD11 cells = experiment: In vitro insulin secretion in BRIN-BD11 cells (radioimmunoassay); format: cell-based, rat; settings: 5.6 mM glucose; for insulin secretion compared to glucose alone, FIG. 1b experiment: P<0.05 to P<0.001
# Description: BRIN-BD11 cells (ECACC accession number 100330033) were cultured in RPMI 1640 tissue culture medium containing 10% (v/v) foetal calf serum, 1% (v/v) antibiotics (100 U/ml of penicillin and 0.1 mg/ml of streptomycin). BRIN-BD11 cells were originally derived by means of electrofusion of a New England Deaconess Hospital (NEDH) rat pancreatic beta-cell line with an RINm5F cell line in order to produce an immortal, glucose sensitive, insulin secreting cell line (McClenaghan etal., Diabetes. 1996 August; 45(8):1132-40). All cells were maintained in sterile tissue culture flasks (Corning Glass Works, Corning, N.Y., USA) at 37° C. in an atmosphere of 5% CO2 and 95% air, using an LEEC incubator (Laboratory Technical Engineering, Nottingham, UK).
# BRIN-BD11 cells were seeded into 24-well plates at a density of 1×10^5 cells and allowed to attach to the wells overnight in an incubator. Before acute studies of insulin were carried out, the cells underwent a 40 min preincubation period at 37° C. with 1.0 ml of Krebs Ringer bicarbonate buffer (115 mM NaCl, 4.7 mM KCl, 1.28 mM CaCl2.2H2O, 1.2 mM KH2PO4, 1.2 mM MgSO4.7H2O, 10 mM NaHCO3, 5 g/l bovine serum albumin (BSA), pH 7.4) supplemented with 1.1 mM glucose. […] The incubations were performed for 20 min at 37° C., after which the buffer solution was removed and 2×200 μl aliquots stored at −20° C. until measurement of insulin levels by radioimmunoassay (RIA).
# [1] = molecular target: Dipeptidyl peptidase-4 (DPP-4) (Homo sapiens, UniProt P27487); settings: pH 7.8
# Description: Dipeptidyl peptidase-4 (DPP-4) was used to determine the degradation properties and identify any degradation products. Each peptide (30 μg) was incubated at 37° C. DPP-4 with 455 μl 50 mM triethanolamine-HCl (TEA) pH 7.8 buffer, and the reaction was stopped with 5 μl 10% (v/v) TFA. Time 0, 15, 30, 60, 120, 240 and 480 minutes degradation profiles were measured and HPLC was carried out to identify the degradation pattern and degradation products.
# high fat fed mice = experiment: Acute glucose homeostasis and insulin secretion in high fat fed mice; format: in vivo; settings: 25 nmol/kg i.p. with glucose 18 mmol/kg
# Description: (§1) NIH Swiss male mice (6 weeks old) were housed in an air conditioned room 22±2° C. with a 12 h light: 12 h dark cycle. Animals were maintained on a high fat diet 16 weeks prior to commencement and throughout the study. Drinking water and high fat diet was freely available. All animal studies were performed in accordance with the UK Animals (Scientific Procedures) Act 1986 under project licences held by the inventor.
# Freely fed animals were divided into weight-matched groups (n=8) and administered, by intraperitoneal injection, glucose alone (18 mmol/kg body weight) or glucose in combination with each peptide (25 nmol/kg body weight). Blood samples were collected immediately prior to (t=0) and 15, 30 and 60 min post-injection. Whole blood was used to measure glucose values using an Acensia CONTOUR Microfill Blood Glucose Meter and Acensia MICROFILL test strips (Bayer Healthcare, UK). Blood samples for measurement of insulin was collected into fluorine/heparin microcentrifuge tubes (Sarstedt, Numbercht, Germany) at times indicated above and immediately centrifuged using a Beckman microcentrifuge (Beckman Instruments, UK) for 5 min at 13,000 g. Plasma was then aliquoted and stored at −20° C. prior to insulin determination by RIA.
# high-fat fed mice = experiment: Persistent glucose-lowering in high-fat fed mice, peptide given 4 hours before glucose load; format: in vivo; settings: 25 nmol/kg i.p. 4 hours before glucose load
# Description: as §1
# Freely fed animals were divided into weight-matched groups (n=8) and administered, by intraperitoneal injection, saline vehicle (0.9% NaCl) or saline in combination with each peptide (25 nmol/kg body weight). Food was then immediately withdrawn and 4 hours later all mice received an intraperitoneal injection of glucose alone (18 mmol/kg body weight). Blood samples were collected immediately prior to (t=0) and 15, 30 and 60 min post glucose injection. Whole blood was used to measure glucose values using an Acensia CONTOUR Microfill Blood Glucose Meter and Acensia MICROFILL test strips (Bayer Healthcare, UK).
# [2] = Incubation in the presence of murine plasma (MALDI-ToF MS, ESI MS); settings: 37° C., 50 mM TEA-HCl pH 7.8, up to 24 hours
# Description: MALDI-ToF Mass Spectrometry: Following solid phase extraction, samples for each degradation time-point were subsequently mixed with α-cyano-4-hydroxycinnamic acid and applied to a Voyager-DE BioSpectrometry Workstation and mass-to-charge (m/z) ratio verses peak intensity recorded.
# ESI Mass Spectrometry: Samples for each degradation time-point were applied to the ESI Ion-trap MS/MS utilizing a mass-to-charge range (m/z) of 0-2000. Resulting mass spectra were analyzed with the turbo sequest algorithm and degradation fragments sequenced against a fasta database containing the native xenin sequence.
# Dipeptidyl peptidase-4 (DPP-4), sequence (P27487 whole entry, species assumed): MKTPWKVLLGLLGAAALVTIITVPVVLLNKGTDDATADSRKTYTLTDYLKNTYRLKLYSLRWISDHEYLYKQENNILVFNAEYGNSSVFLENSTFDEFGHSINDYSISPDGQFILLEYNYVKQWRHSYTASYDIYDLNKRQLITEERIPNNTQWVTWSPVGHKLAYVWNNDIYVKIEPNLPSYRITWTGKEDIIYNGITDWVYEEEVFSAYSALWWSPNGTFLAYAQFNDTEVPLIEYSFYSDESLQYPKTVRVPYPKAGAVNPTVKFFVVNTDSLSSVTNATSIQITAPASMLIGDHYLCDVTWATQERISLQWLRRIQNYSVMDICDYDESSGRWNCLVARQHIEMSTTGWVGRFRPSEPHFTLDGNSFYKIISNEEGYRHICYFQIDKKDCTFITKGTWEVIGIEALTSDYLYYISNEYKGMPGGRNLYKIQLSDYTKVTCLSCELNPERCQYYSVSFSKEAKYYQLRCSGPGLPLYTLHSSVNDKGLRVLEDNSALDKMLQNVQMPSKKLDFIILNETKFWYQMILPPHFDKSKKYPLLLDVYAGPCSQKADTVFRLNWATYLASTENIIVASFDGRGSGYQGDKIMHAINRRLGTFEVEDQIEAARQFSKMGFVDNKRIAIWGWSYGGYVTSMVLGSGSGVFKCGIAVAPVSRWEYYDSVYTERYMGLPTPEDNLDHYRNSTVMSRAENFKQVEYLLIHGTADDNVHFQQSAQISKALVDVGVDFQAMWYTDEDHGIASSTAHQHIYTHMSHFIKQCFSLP
Substance,"insulin secretion compared to glucose alone, FIG. 1b experiment (BRIN-BD11 cells)",degradation by DPP-IV [1],plasma glucose AUC vs glucose alone (high fat fed mice; 0-60 min),"plasma glucose excursion vs glucose alone (high fat fed mice; 0-60 min, FIG. 2a)",plasma insulin response vs glucose alone (high fat fed mice; FIG. 2b/2f),effect on plasma glucose when administered 4 hours previously (high-fat fed mice),"insulin secretion, peptide alone (BRIN-BD11 cells; 20 min, 10^-12 to 10^-6 M, FIG. 1a/1e)","insulin production compared to glucose alone, concentrations with significant effect (BRIN-BD11 cells; peptide alone, FIG. 1a/1e)",degradation in murine plasma [2]
"(D-Ala^2)GIP: YAEGTFISDYSIAMDKIHQQDFVNWLLAQKGKKNDWKHNITQ, alanine at position 2 is a D-amino acid (Y[dA]EGTFISDYSIAMDKIHQQDFVNWLLAQKGKKNDWKHNITQ)",significantly stimulated insulin secretion in a concentration-dependent manner,,,,,,,,
MLTKFETKSARVKGLSFHPKRPWIL-OH [native xenin],significantly stimulated insulin secretion in a concentration-dependent manner,completely resistant to degradation by DPP-IV,failed to reach overall significance,not significantly different to animals receiving glucose alone,not significantly different to animals receiving glucose alone,did not elicit any significant effects on plasma glucose,stimulated insulin secretion in a concentration-dependent manner,significantly enhanced insulin production at concentrations of 10^−8 and 10^−6 M,
MLTQFETQSAQVQGLSFHPQQPWIL [xenin-Gln],,,,,,,,,stable in the presence of murine plasma
